In US12410153B2, “Compounds, compositions and methods” (Avalo Therapeutics, Inc., priority 2014, dated 2025):

Legend:
[1] = Cardiovascular safety in anesthetized dogs, continuous IV infusion 90 min; assay type: in vivo, dog; settings: dog, plasma, escalating IV infusion rates, read-out: plasma concentration at the end of infusion
Description: (§1) The potential effects of Form II of Compound (I) on the functions of the nervous system, cardiovascular system, and respiratory system were evaluated in a battery of safety pharmacology studies that included an in vitro human ether-a-go-go-related gene (hERG) assay and in vivo studies in rats, dogs, and monkeys. CNS effects were tested in rats at single doses at 15, 75, and 225 mg/kg.
(§2) Effects of Form II on the cardiovascular system were tested in several studies. Potential QTc effects were tested in vitro and in vivo.
(§3) Hemodynamic effects were tested in dogs and monkeys. […] However, Form II did produce dose-independent increases in systolic (12-15 mm Hg), diastolic (7-10 mm Hg), and mean arterial pressures (9-12 mm Hg) in conscious, chair-restrained monkeys given single oral doses at 15, 75, or 150 mg/kg and monitored for 6 h post-dose.

[2] = tested on: dogs; test: as above; assay type: in vivo, dog; settings: escalating IV infusion rates
Description: as §1, §2, §3

[3] = target: T1, GluN1a/GluN2B human receptors (Homo sapiens, UniProt Q05586+Q13224); test: Radioligand binding, L(tk−) cell membranes expressing human GluN1a/GluN2B; parameters: expressed in transfected cells; host or cells: L(tk−) cells (mouse fibroblasts), dexamethasone-inducible expression; settings: geometric mean
[4] = target: T2, NMDA-GluN2B receptors, rat whole brain homogenate (Rattus norvegicus, UniProt P35439+Q00960); test: Radioligand binding, rat whole brain homogenate; settings: geometric mean
T2 construct: performed using whole brain homogenate (rat); from tissue; host or cells: rat whole brain homogenate
Description: (§4) Radioligand binding assays were performed at room temperature (or 37° C.) in 96-well microtiter plates with a final assay volume of […] in 20 mM HEPES buffer (pH 7.4) containing 150 mM NaCl. […] Nonspecific binding was assessed using N-(3-chlorobenzyl)-4-iodobenzimidamide (final concentration, 10 μM), and total binding was measured by addition of DMSO (final concentration, 2%). L(tk−) cell membranes expressing human GluN1a/GluN2B receptors (final concentration, 40 pM) and [^3H]-[(E)-N1-(2-methoxybenzyl)-cinnamamidine] (final concentration, 1 nM) were added to all wells of the microtiter plate. After 3 h (24 h or 48 h) of incubation at room temperature (or 37° C.), samples were filtered through Packard GF/B filters (presoaked in 0.05% polyethylenimine [PEI; Sigma P-3143]) and washed 10 times with 1 mL of cold 20 mM HEPES buffer per wash. After vacuum drying of the filter plates, 50 μL of Packard Microscint-20 was added and the bound radioactivity determined in a Packard TopCount.
(§5) Analogous binding experiments, to those described above for the cloned human receptor expressed in L(tk−) cells, were also performed using whole brain homogenate (rat), frontal cortex homogenate (dog and rhesus monkey), and temporal cortex homogenate (human).

[5] = target: T1, GluN1a/GluN2B human receptors; test: Calcium influx (FLIPR) in GluN1a/GluN2B L(tk−) cells
[6] = target: T3, NMDA-GluN2B receptors, rhesus monkey frontal cortex homogenate (Macaca mulatta, UniProt F6T8S6); test: Radioligand binding, rhesus frontal cortex homogenate; settings: geometric mean
T3 construct: frontal cortex homogenate (dog and rhesus monkey); from tissue; host or cells: rhesus monkey frontal cortex homogenate
Description: as §4, §5

[7] = in vivo; settings: both, Sprague-Dawley, rat, po
[8] = target: T4, NMDA-GluN2B receptors, human temporal cortex homogenate (Homo sapiens, UniProt Q05586+Q13224); test: Radioligand binding, human temporal cortex homogenate; settings: geometric mean
T4 construct: temporal cortex homogenate (human); from tissue; host or cells: human temporal cortex homogenate
Description: as §4, §5

[9] = target: T5, NMDA-GluN2B receptors, dog frontal cortex homogenate (Canis lupus familiaris, UniProt Q5R1P0+Q5R1P3); test: Radioligand binding, dog frontal cortex homogenate; settings: geometric mean
T5 construct: frontal cortex homogenate (dog and rhesus monkey); from tissue; host or cells: dog frontal cortex homogenate
Description: as §4, §5

[10] = Single-dose pharmacokinetics in monkeys (oral and IV); assay type: in vivo; settings: male, rhesus monkey, plasma
Description: Male Sprague-Dawley rats (N=8; N=4 oral and N=4 intravenous [IV]) weighing approximately 250-280 g and male rhesus monkeys (N=4, crossover) weighing 6.0-8.8 kg were used for the PK studies. In rats, the IV dose of crystalline Form II of Compound (I) at 2 mg/kg (0.4 mL/kg) was administered as a bolus and the oral dose was administered by gavage at 15 mg/kg (5 mL/kg). In monkeys, the IV dose of Form II at 2 mg/kg (0.1 mL/kg) was administered as a slow bolus and the oral dose was administered via nasogastric tube at 15 mg/kg (5 mL/kg). Blood samples were serially collected pre-dose, and at 0.083 (IV only), 0.25, 0.50, 1, 2, 4, 6, 8, 10, 24, 48, 72, and 96 h post-dose. The concentrations of Form II in rat and monkey plasma were determined by LC/MS/MS analysis in the positive ion mode using a heated nebulizer interface. The lower limit of quantitation was 2.5 ng/mL (approximately 0.00697 μM).

[11] = rhesus, PO 15 mg/kg, mean (S.D.)

T1 sequence (Q13224 27-1484, other chains not shown): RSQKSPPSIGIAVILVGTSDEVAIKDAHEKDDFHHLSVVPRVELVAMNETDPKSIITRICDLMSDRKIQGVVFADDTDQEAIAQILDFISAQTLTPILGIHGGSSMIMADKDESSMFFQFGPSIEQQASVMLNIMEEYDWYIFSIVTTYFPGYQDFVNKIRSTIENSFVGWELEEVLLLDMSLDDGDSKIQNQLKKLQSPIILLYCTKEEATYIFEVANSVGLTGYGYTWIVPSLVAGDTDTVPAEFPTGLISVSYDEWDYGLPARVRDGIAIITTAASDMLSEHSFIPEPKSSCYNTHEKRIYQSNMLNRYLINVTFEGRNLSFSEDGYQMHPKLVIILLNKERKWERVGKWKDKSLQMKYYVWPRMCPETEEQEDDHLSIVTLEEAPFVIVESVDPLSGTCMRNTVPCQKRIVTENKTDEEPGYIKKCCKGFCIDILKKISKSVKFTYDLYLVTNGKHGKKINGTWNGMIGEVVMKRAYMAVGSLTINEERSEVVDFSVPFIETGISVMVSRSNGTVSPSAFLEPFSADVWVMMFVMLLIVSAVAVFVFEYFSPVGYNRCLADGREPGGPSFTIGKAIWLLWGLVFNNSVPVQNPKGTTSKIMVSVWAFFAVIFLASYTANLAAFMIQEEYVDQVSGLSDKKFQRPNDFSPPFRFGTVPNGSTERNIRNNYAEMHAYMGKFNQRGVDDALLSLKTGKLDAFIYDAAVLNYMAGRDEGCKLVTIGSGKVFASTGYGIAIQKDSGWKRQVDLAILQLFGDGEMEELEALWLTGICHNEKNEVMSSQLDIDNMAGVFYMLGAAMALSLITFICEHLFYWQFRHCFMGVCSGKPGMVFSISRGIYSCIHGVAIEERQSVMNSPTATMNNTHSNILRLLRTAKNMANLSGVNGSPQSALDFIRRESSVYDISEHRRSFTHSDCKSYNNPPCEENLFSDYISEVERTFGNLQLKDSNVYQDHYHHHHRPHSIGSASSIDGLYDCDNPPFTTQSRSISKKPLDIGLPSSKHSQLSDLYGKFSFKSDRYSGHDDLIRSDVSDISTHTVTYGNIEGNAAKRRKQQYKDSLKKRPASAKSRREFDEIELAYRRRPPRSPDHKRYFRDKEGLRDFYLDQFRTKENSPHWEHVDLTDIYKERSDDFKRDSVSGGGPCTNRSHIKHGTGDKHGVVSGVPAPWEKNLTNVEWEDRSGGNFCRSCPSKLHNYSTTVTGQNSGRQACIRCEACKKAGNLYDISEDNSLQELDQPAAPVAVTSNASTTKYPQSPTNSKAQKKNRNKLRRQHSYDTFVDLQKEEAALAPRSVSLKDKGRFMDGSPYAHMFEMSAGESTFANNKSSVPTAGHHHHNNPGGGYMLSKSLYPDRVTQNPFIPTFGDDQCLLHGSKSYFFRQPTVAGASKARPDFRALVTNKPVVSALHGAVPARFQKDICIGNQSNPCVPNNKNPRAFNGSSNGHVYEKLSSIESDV
T3 sequence (F6T8S6 29-1484): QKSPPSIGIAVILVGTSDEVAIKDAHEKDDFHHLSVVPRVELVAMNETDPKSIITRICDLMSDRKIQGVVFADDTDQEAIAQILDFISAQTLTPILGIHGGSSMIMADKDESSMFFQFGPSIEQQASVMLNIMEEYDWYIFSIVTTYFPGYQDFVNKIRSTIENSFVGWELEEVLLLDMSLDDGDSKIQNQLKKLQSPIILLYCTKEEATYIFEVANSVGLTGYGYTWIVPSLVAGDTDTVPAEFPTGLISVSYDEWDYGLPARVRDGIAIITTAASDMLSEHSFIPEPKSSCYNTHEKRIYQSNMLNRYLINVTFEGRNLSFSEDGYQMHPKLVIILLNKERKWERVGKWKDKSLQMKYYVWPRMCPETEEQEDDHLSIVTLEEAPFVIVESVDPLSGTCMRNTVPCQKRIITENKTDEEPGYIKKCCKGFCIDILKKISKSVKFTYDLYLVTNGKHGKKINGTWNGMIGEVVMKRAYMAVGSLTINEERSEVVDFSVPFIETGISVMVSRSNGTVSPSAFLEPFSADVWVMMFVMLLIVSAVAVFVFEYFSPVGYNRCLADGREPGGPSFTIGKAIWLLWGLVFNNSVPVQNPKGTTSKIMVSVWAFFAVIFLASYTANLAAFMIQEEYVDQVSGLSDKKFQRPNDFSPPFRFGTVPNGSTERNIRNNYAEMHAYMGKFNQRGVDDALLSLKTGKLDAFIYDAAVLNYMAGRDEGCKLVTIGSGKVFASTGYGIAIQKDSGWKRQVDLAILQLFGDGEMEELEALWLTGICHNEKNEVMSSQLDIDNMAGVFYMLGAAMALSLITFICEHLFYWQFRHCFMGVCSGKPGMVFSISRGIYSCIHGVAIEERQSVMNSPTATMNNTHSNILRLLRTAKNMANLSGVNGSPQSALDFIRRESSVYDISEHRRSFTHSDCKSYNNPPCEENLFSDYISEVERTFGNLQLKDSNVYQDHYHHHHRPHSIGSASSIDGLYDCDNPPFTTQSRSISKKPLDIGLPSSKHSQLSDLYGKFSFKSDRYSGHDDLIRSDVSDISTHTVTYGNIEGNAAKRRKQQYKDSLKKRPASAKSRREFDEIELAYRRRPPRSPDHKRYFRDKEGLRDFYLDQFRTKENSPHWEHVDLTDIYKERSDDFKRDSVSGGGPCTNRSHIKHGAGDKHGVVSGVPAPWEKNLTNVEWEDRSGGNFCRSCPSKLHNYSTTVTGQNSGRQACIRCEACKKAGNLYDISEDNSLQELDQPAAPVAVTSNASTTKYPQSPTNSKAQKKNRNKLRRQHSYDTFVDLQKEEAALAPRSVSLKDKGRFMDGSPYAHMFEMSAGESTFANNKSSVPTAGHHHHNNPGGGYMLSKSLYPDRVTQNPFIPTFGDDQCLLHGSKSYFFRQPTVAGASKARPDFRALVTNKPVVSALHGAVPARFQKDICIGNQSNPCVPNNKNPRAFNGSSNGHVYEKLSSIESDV
T2 sequence (Q00960 27-1482, other chains not shown): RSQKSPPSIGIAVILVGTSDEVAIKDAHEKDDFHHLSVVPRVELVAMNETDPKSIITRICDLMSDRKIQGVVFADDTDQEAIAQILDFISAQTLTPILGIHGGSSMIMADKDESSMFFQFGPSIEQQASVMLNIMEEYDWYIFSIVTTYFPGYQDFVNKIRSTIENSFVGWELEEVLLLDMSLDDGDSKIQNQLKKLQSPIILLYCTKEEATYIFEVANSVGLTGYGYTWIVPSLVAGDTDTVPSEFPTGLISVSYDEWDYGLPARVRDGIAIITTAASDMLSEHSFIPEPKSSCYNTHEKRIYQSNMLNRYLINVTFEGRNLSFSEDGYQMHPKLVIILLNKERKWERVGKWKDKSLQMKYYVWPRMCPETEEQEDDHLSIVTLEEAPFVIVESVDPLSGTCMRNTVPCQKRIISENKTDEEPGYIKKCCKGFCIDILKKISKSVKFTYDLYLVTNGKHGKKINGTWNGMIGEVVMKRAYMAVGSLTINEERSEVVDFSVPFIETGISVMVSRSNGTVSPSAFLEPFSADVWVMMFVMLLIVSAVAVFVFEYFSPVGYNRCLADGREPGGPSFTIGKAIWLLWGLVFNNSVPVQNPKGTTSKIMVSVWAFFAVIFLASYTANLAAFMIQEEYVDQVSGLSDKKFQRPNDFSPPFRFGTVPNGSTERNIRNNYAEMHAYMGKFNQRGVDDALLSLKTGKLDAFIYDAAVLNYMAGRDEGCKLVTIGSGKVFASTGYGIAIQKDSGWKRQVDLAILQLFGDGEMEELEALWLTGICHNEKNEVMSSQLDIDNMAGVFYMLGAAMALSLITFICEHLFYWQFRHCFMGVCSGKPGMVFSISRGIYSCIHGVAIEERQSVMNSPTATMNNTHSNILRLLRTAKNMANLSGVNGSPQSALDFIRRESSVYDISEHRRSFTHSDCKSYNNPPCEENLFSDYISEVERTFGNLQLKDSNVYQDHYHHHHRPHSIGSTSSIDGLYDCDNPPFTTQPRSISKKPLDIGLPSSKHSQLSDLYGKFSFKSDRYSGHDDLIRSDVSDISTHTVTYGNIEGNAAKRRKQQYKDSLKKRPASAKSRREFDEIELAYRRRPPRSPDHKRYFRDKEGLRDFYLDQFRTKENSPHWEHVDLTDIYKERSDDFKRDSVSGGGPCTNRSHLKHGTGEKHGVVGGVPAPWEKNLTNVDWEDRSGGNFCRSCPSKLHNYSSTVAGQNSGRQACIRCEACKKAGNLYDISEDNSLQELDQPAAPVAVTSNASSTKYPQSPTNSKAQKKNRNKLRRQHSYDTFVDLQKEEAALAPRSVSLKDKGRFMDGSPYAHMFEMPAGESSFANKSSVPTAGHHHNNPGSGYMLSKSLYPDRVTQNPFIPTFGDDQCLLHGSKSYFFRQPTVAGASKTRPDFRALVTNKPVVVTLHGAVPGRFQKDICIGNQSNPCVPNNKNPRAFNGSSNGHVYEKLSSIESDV

For `Cc1ccc(COC(=O)N2CC[C@H](CNc3ncccn3)[C@H](F)C2)cc1` [Form II, 4-methylbenzyl (3S, 4R)-3-fluoro-4-[(pyrimidin-2-ylamino)methyl] piperidine-1-carboxylate], the concentration at 90 min [1] was about 74 µM, the “heart rate, arterial blood pressure, femoral blood flow” value [2] was “did not affect” and the “heart rhythm and ECG parameters incl. QTc interval” value [2] was “did not affect”. The Ki ([3]; 4° C.) was 1.8 nM, the Ki ([3]; 37° C.) was 31 nM and the Ki ([3]; room temp.) was 4.9 nM. The Ki ([4]; 37° C.) was 14 nM, the Ki ([4]; room temp.) was 3.3 nM and the IC50 [5] was 3.6 nM. For the same compound, the Ki ([6]; 37° C.) was 14 nM, the Ki ([6]; room temp.) was 3.1 nM and the Cmax ([7]; 10 mg/kg) was about 4 µM. The Cmax ([7]; 30 mg/kg) was about 14 µM, the Cmax ([7]; 100 mg/kg) was about 26 µM and the Ki ([8]; 37° C.) was 8.1 nM. For the same compound, the Ki ([8]; room temp.) was 3.1 nM, the Ki ([9]; 37° C.) was 13 nM and the Ki ([9]; room temp.) was 3.2 nM. For the same compound, the bioavailability ([10]; 15 mg/kg, dose-normalized AUC0-∞ after IV and PO, crossover) was 50%, the Tmax ([10]; po, 15 mg/kg, PO 15 mg/kg, mean (S.D.)) was about 2 h and the half-life ([10]; IV 2 mg/kg, mean (S.D.)) was 4.2 h. For the same compound, the clearance ([10]; IV 2 mg/kg, mean (S.D.), read-out: CLp) was 15.1 mL/min/kg, the Vd ([10]; IV 2 mg/kg, mean (S.D.), read-out: Vdss) was 2.9 L/kg and the AUC(0-inf) ([10]; rhesus, IV 2 mg/kg, mean (S.D.)) was 6.67 µM·h. For the same compound, the AUC(0-inf) [10, 11] was 25.1 µM·h and the Cmax [10, 11] was 3.6 µM.
